ChEMBL document CHEMBL5352423, “Discovery of potent human dihydroorotate dehydrogenase inhibitors based on a benzophenone scaffold” (Eur J Med Chem, 2022)
In brackets after ≈: the same amount, converted by molar mass. Activity calls are given as the source filed them. The rule behind the calls is not given here.

Key:
HCT-116 [1] = test: Antitumor activity against human HCT-116 cells xenografted in NOD-SCID mouse assessed as tumor growth inhibition at 1.5 mg/kg, po administered for 24 days relative to control; assay type: functional; settings: HCT-116, 576 h, time 24 day, read-out: TGI
Raji [2] = test: animal or person; settings: Mus musculus, po, 576 h, read-out: TGI
Description: Antitumor activity against human Raji cells xenografted in NOD-SCID mouse assessed as tumor growth inhibition at 1.5 mg/kg, po administered for 24 days relative to control

[3] = Toxicity in NOD-SCID mouse xenografted with human HCT-116 cells assessed as change in body weight at 1.5 mg/kg, po administered for 24 days; assay type: organism-based; settings: in vivo, 576 h, time 24 day
Mus musculus = test: Immunosuppressive activity in NOD-SCID mouse xenografted with human HCT-116 cells at 1.5 mg/kg, po for 21 days; assay type: functional, organism-based; settings: time 21.0 day
[4] = Toxicity in NOD-SCID mouse xenografted with human Raji cells assessed as death at 1.5 mg/kg, po administered for 24 days; assay type: organism-based; settings: in vivo, 576 h, time 24 day
[5] = Toxicity in NOD-SCID mouse xenografted with human Raji cells assessed as change in body weight at 1.5 mg/kg, po administered for 24 days; assay type: organism-based; settings: in vivo, 576 h, time 24 day
[6] = Toxicity in NOD-SCID mouse xenografted with human HCT-116 cells assessed as splenomegaly at 1.5 mg/kg, po administered for 21 days; assay type: organism-based; settings: in vivo, 504 h, time 21 day
[7] = Toxicity in BALB/c mouse assessed as histopathological changes in liver administered at 500 mg/kg, po for 14 days; assay type: organism-based; settings: in vivo, 336 h, time 14 day
[8] = Toxicity in BALB/c mouse assessed as histopathological changes in lung administered at 500 mg/kg, po for 14 days; assay type: organism-based; settings: in vivo, 336 h, time 14 day
HCT-116 [9] = test: Induction of cell cycle arrest in human HCT-116 cells assessed as accumulation cells in S-phase at 0.125 uM for 24 hrs by PI/RNAse staining method (reference value: 30.2%); assay type: functional
[10] = Toxicity in BALB/c mouse assessed as change in blood PLT administered at 500 mg/kg, po for 14 days; assay type: organism-based; settings: in vivo, 336 h, time 14 day
[11] = Toxicity in BALB/c mouse assessed as change in blood neutrophil administered at 500 mg/kg, po for 14 days; assay type: organism-based; settings: in vivo, 336 h, time 14 day
Raji [12] = test: Antiproliferative activity against human Raji cells assessed as inhibition of cell growth at 0.1 uM relative to control; assay type: functional
[13] = Cytotoxicity against human HCoEpiC cells incubated for 96 hrs by MTT assay; assay type: toxicity, cell-based
[14] = Cytotoxicity against human HL7702 cells incubated for 96 hrs by MTT assay; assay type: toxicity, cell-based, L02
HCT-116 [15] = test: Antiproliferative activity against human HCT-116 cells incubated for 96 hrs by MTT assay; assay type: functional, cell-based; settings: HCT-116, 96 h
SUD4 = test: Antiproliferative activity against human SU-DHL-4 cells incubated for 96 hrs by MTT assay; assay type: functional, cell-based; settings: SU-DHL-4, 96 h
Raji [16] = test: Antiproliferative activity against human Raji cells assessed as inhibition of cell growth; assay type: functional, cell-based; settings: dose 0.0125-0.2 µM
Kasumi 1 = test: Antiproliferative activity against human Kasumi 1 cells incubated for 96 hrs by MTT assay; assay type: functional, cell-based; settings: Kasumi 1, 96 h
Raji [17] = test: Rescue of cell viability in human Raji cells assessed cell growth inhibition rate at 0.0125 to 0.2 uM in presence of uridine; assay type: functional; settings: dose 0.0125-0.2 µM
[18] = Cytotoxicity against human NCM460 cells incubated for 96 hrs by MTT assay; assay type: toxicity, cell-based
HCT-116 [19] = test: Induction of cell cycle arrest in human HCT-116 cells assessed as accumulation cells in S-phase at 0.25 uM for 24 hrs by PI/RNAse staining method (reference value: 30.2%); assay type: functional
[20] = Toxicity in BALB/c mouse assessed as lethal dose administered orally for 14 days; settings: in vivo, route po, time 14 day
[21] = Toxicity in BALB/c mouse assessed as change in blood MCV administered at 500 mg/kg, po for 14 days; assay type: organism-based; settings: in vivo, 336 h, time 14 day
Raji [22] = test: Antiproliferative activity against human Raji cells assessed as inhibition of cell growth at 0.05 uM relative to control; assay type: functional
[23] = Toxicity in BALB/c mouse assessed as change in blood MCHC administered at 500 mg/kg, po for 14 days; assay type: organism-based; settings: in vivo, 336 h, time 14 day
[24] = Aqueous solubility of compound; assay type: physicochemical; settings: buffer
Raji [25] = test: Antiproliferative activity against human Raji cells assessed as inhibition of cell growth at 0.025 uM relative to control; assay type: functional
A-375 = test: Antiproliferative activity against human A-375 cells incubated for 96 hrs by MTT assay; assay type: functional, cell-based; settings: A-375, 96 h
[26] = Toxicity in BALB/c mouse assessed as change in blood MPV administered at 500 mg/kg, po for 14 days; assay type: organism-based; settings: in vivo, 336 h, time 14 day
[27] = Toxicity in BALB/c mouse assessed as histopathological changes in spleen administered at 500 mg/kg, po for 14 days; assay type: organism-based; settings: in vivo, 336 h, time 14 day
HCT-116 [28] = test: Antitumor activity against human HCT-116 cells xenografted in NOD-SCID mouse assessed as tumor growth inhibition at 30 mg/kg, po administered for 24 days relative to control; assay type: functional; settings: HCT-116, 576 h, time 24 day, read-out: TGI
Raji [29] = test: Antiproliferative activity against human Raji cells assessed as inhibition of cell growth at 0.0125 uM relative to control; assay type: functional
[30] = Toxicity in BALB/c mouse assessed as change in blood RDW administered at 500 mg/kg, po for 14 days; assay type: organism-based; settings: in vivo, 336 h, time 14 day
HCT-116 [31] = test: Antiproliferative activity against human HCT-116 cells assessed as inhibition of cell growth at 0.0125 to 0.2 uM; assay type: functional, cell-based; settings: dose 0.0125-0.2 µM
[32] = Lipophilicity, logP of compound; assay type: physicochemical; settings: octanol/water
[33] = Toxicity in BALB/c mouse assessed as change in blood WBC administered at 500 mg/kg, po for 14 days; assay type: organism-based; settings: in vivo, 336 h, time 14 day
[34] = Toxicity in BALB/c mouse assessed as change in blood RBC administered at 500 mg/kg, po for 14 days; assay type: organism-based; settings: in vivo, 336 h, time 14 day
[35] = Toxicity in BALB/c mouse assessed as change in blood HGB administered at 500 mg/kg, po for 14 days; assay type: organism-based; settings: in vivo, 336 h, time 14 day
Raji [36] = test: Induction of cell cycle arrest in human Raji cells assessed as accumulation cells in S-phase at 0.125 uM for 24 hrs by PI/RNAse staining method (reference value: 42.8%); assay type: functional
Raji [37] = test: Antiproliferative activity against human Raji cells assessed as inhibition of cell growth at 0.2 uM relative to control; assay type: functional
[38] = Selectivity index ratio of IC50 for human HL7702 cells to IC50 for human Raji cells; assay type: toxicity; settings: HL7702 cells and Raji cells, read-out: Ratio IC50
U-937 = test: Antiproliferative activity against human U-937 cells incubated for 96 hrs by MTT assay; assay type: functional, cell-based; settings: U-937, 96 h
KG-1 = test: Antiproliferative activity against human KG-1 cells incubated for 96 hrs by MTT assay; assay type: functional, cell-based; settings: KG-1, 96 h
[39] = Toxicity in BALB/c mouse assessed as change in blood MCH administered at 500 mg/kg, po for 14 days; assay type: organism-based; settings: in vivo, 336 h, time 14 day
[40] = Toxicity in NOD-SCID mouse xenografted with human Raji cells assessed as death at 30 mg/kg, po administered for 24 days; assay type: organism-based; settings: in vivo, 576 h, time 24 day
[41] = Toxicity in NOD-SCID mouse xenografted with human Raji cells assessed as change in body weight at 30 mg/kg, po administered for 24 days; assay type: organism-based; settings: in vivo, 576 h, time 24 day
[42] = biological target: T1, Dihydroorotate dehydrogenase (quinone), mitochondrial (Homo sapiens, UniProt Q02127); test: Inhibition of human DHODH at 100 nM for 30 mins relative to control
T1 sequence (Q02127 whole entry): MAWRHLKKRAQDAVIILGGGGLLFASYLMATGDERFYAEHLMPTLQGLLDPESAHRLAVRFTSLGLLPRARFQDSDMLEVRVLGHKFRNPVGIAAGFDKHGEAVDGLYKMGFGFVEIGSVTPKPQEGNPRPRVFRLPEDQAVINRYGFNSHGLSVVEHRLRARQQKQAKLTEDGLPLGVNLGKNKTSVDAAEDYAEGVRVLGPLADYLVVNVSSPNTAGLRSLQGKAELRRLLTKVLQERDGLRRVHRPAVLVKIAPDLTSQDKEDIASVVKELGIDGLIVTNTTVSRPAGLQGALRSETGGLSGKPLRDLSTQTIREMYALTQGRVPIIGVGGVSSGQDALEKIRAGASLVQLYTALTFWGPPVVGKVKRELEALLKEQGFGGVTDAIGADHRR

[43] = Toxicity in BALB/c mouse assessed as histopathological changes in kidney administered at 500 mg/kg, po for 14 days; assay type: organism-based; settings: in vivo, 336 h, time 14 day
[44] = biological target: Voltage-gated inwardly rectifying potassium channel KCNH2 (Homo sapiens, UniProt Q12809); test: Inhibition of human ERG; assay type: toxicity
Chain of Voltage-gated inwardly rectifying potassium channel KCNH2 (Q12809 whole entry): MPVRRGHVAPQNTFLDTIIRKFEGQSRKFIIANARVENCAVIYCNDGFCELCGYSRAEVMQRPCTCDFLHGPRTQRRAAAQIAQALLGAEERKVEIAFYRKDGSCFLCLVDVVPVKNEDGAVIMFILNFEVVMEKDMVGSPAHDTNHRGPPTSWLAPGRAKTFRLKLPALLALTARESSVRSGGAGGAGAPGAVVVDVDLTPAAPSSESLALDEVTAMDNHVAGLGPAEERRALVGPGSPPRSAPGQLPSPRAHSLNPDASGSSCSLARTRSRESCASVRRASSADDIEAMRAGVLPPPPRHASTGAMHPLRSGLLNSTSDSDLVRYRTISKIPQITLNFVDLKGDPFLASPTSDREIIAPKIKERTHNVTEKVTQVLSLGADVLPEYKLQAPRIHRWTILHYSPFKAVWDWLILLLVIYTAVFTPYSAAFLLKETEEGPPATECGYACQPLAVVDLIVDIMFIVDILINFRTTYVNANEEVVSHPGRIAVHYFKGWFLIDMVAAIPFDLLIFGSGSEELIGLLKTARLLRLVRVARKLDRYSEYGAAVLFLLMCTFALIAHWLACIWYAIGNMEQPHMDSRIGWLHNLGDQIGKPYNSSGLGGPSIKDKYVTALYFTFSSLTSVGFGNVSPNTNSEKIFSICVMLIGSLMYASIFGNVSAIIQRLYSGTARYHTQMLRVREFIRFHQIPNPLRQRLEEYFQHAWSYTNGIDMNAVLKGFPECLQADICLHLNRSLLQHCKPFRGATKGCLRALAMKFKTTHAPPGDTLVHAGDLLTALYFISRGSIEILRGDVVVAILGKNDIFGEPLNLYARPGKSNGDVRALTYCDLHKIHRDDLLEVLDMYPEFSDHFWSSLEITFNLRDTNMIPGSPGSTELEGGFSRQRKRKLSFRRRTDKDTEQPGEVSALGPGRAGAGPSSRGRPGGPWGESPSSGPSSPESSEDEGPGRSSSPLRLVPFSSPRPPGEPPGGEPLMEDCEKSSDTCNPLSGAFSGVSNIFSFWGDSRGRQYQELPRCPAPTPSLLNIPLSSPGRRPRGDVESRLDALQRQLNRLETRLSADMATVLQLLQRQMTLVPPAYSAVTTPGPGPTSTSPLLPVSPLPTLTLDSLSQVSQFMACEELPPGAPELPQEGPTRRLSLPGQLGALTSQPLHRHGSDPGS

[45] = biological target: T1, Dihydroorotate dehydrogenase (quinone), mitochondrial; test: Inhibition of human DHODH incubated for 30 mins
Raji [46] = test: Antiproliferative activity against human Raji cells incubated for 96 hrs by MTT assay; assay type: functional, cell-based
Raji [47] = test: Induction of cell cycle arrest in human Raji cells assessed as accumulation cells in S-phase at 0.25 uM for 24 hrs by PI/RNAse staining method (reference value: 42.8%); assay type: functional
HCT-116 [48] = test: Induction of cell cycle arrest in human HCT-116 cells assessed as accumulation cells in S-phase at 0.0625 uM for 24 hrs by PI/RNAse staining method (reference value: 30.2%); assay type: functional
Raji [49] = test: Induction of cell cycle arrest in human Raji cells assessed as accumulation cells in S-phase at 0.0625 uM for 24 hrs by PI/RNAse staining method (reference value: 42.8%); assay type: functional
[50] = Toxicity in BALB/c mouse assessed as decrease in alkaline phosphatase administered at 500 mg/kg, po for 14 days; assay type: organism-based; settings: in vivo, 336 h, time 14 day
[51] = Toxicity in BALB/c mouse assessed as change in blood lymphocytes administered at 500 mg/kg, po for 14 days; assay type: organism-based, Lymphocyte; settings: in vivo, 336 h, time 14 day
Raji [52] = test: Antitumor activity against human Raji cells xenografted in NOD-SCID mouse assessed as tumor growth inhibition at 30 mg/kg, po administered for 24 days relative to control; assay type: functional; settings: 576 h, time 24 day, read-out: TGI
[53] = biological target: T1, Dihydroorotate dehydrogenase (quinone), mitochondrial; test: Inhibition of human DHODH at 1 uM for 30 mins relative to control
[54] = Toxicity in BALB/c mouse assessed as change in blood HCT administered at 500 mg/kg, po for 14 days; assay type: organism-based; settings: in vivo, 336 h, time 14 day

With `CCn1c(CO)nn(-c2cc(O[C@@H](C)C(F)(F)F)c(C(=O)Nc3c(F)cccc3Cl)cc2F)c1=O` the inhibition in vivo at 1.5 mg/kg (HCT-116 [1]) was 44.4%, the inhibition in vivo at 1.5 mg/kg (Raji [2]) was 71.4% and the Activity [3] was “Toxic”. For the same compound, the Activity (Mus musculus) was “Active”, the Activity [4] was “Non-Toxic” and the Activity [5] was “Non-Toxic”. The Activity [6] was “Toxic”.

With `C/C(O)=C(\C#N)C(=O)Nc1cc(O[C@@H](C)C(F)(F)F)c(C(=O)c2ccccc2Cl)cc1F` the Activity [7] was “Toxic”, the Activity [8] was “Non-Toxic” and the Activity (HCT-116 [9]) was 58.9%. For the same compound, the Activity [10] was “Non-Toxic”, the Activity [11] was “Non-Toxic” and the inhibition at 0.1 µM (Raji [12]) was 52.2%. The IC50 at 96 h [13] was 6800 nM, the IC50 at 96 h [14] was 1100 nM and the IC50 (HCT-116 [15]) was 140 nM. The IC50 (SUD4) was 750 nM, the inhibition (Raji [16]) was “Dose-Dependent Effect” and the IC50 (Kasumi 1) was 100 nM. The “inhibition (INH)” value (Raji [17]) was less than 5%, the IC50 at 96 h [18] was 14200 nM and the Activity (HCT-116 [19]) was 60.6%. The LD50 at 336 h [20] was 500 mg/kg, the Activity [21] was “Non-Toxic” and the inhibition at 0.05 µM (Raji [22]) was 36.8%. For the same compound, the Activity [23] was “Non-Toxic”, the solubility [24] was 61.7 µg/mL (≈ 131 µM) and the inhibition at 0.025 µM (Raji [25]) was 20.7%. The IC50 (A-375) was 250 nM, the Activity [26] was “Non-Toxic” and the Activity [27] was “Non-Toxic”. The inhibition in vivo at 30 mg/kg (HCT-116 [28]) was 42.1%, the inhibition at 0.0125 µM (Raji [29]) was 17% and the Activity [30] was “Non-Toxic”. For the same compound, the Activity (HCT-116 [31]) was “Active”, the logP [32] was 2.49 and the Activity [33] was “Non-Toxic”. For the same compound, the Activity [34] was “Non-Toxic”, the Activity [35] was “Non-Toxic” and the Activity (Raji [36]) was 60.6%. The inhibition at 0.2 µM (Raji [37]) was 60.9%, the selectivity ratio [38] was 18.3 and the IC50 (U-937) was 220 nM. The IC50 (KG-1) was 430 nM, the Activity [39] was “Non-Toxic” and the Activity [40] was “Non-Toxic”. For the same compound, the Activity [41] was “Non-Toxic”, the inhibition [42] was 84.2% and the Activity [43] was “Non-Toxic”. For the same compound, the IC50 [44] was greater than 100000 nM, the IC50 [45] was 10.9 nM and the IC50 (Raji [46]) was 60 nM. For the same compound, the Activity (Raji [47]) was 67.1%, the Activity (HCT-116 [48]) was 44.6% and the Activity (Raji [49]) was 54.2%. The Activity [50] was “Non-Toxic”, the Activity [51] was “Non-Toxic” and the inhibition in vivo at 30 mg/kg (Raji [52]) was 58.3%. The inhibition [53] was 98.4% and the Activity [54] was “Non-Toxic”.
